{"source": "paper PMC6207642", "about": "“Real Time Monitoring of NADPH Concentrations in Corynebacterium glutamicum and Escherichia coli via the Genetically Encoded Sensor mBFP” (Frontiers in Microbiology, 2018)", "key": {"mBFP [1]": {"tested_on": "T1, mBFP", "T1 construct": "no tag mentioned; codon-optimized gene (amplicon 780 bp) used only in cells", "assay": "photometric benzaldehyde reductase assay, Michaelis-Menten fit", "type": "biochemical, uncultured bacterium", "conditions": "phosphate buffer pH 8, 30 °C"}, "mBFP [2]": {"molecular_target": "T1, mBFP", "assay": "thermal shift (SYPRO Orange), concentration dependence", "type": "binding, uncultured bacterium", "conditions": "NADPH 0-10 mM; 40 to 70 °C in 0.5 °C steps"}}}
{"smiles": "NC(=O)C1=CN([C@@H]2O[C@H](COP(=O)(O)OP(=O)(O)OC[C@H]3O[C@@H](n4cnc5c(N)ncnc54)[C@H](OP(=O)(O)O)[C@@H]3O)[C@@H](O)[C@H]2O)C=CC1", "note": "[NADPH]", "values": [{"measurement": "Km", "setting": "mBFP [1]; 12.5 mM benzaldehyde, NADPH 0.5-180 μM", "result": 41, "unit": "µM"}, {"measurement": "Kd", "setting": "mBFP [2]", "result": 640, "unit": "µM"}]}
{"smiles": "O=Cc1ccccc1", "note": "[benzaldehyde]", "values": [{"measurement": "Km", "setting": "mBFP [1]; 200 μM NADPH, benzaldehyde 0.5-12.5 mM", "result": 3100, "unit": "µM"}]}
